This passage reports GI50 and TGI results from PubChem BioAssay (NCI).

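Assay format: 96-well plates, 48-hour exposure. The concentration for 50% growth inhibition is given as GI50. The concentration for full growth arrest is given as TGI.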

Some test systems named below: SK-MEL-5 melanoma; COLO 205 colon; BT-549 breast; TK-10 renal; HL-60(TB) leukemia; SF-539 CNS; MALME-3M melanoma; A549 NSCLC; SK-MEL-2 melanoma; SNB-19 CNS.
Holding throughout (assay): NCI anticancer screen, dose series, 48 h

In the case of `Oc1ccc(N=Nc2ccc(Br)cc2)c(O)c1`, the GI50 with SK-MEL-5 melanoma was 3.85 µM; with COLO 205 colon it was 17.8 µM; in the assay on BT-549 breast, 2.67 µM; with TK-10 renal, 4.95 µM; in the assay on HL-60(TB) leukemia, 1.71 µM; in the assay on SF-539 CNS it was 1.93 µM. For the same compound, the GI50 is 3.61 µM with MALME-3M melanoma, 3.19 µM in the assay with A549 NSCLC, 2.64 µM in the assay with SK-MEL-2 melanoma and 4 µM in the assay on SNB-19 CNS. For the same compound, the TGI in the assay on SK-MEL-5 melanoma was found to be 21.6 µM; in the assay on COLO 205 colon, 48.9 µM; with BT-549 breast, 8.3 µM; with TK-10 renal, 24.8 µM; with HL-60(TB) leukemia it was 4.53 µM; with SF-539 CNS, 5.14 µM. For the same compound, the TGI in the assay on MALME-3M melanoma amounted to 20.7 µM; with A549 NSCLC, 17.9 µM; in the assay with SK-MEL-2 melanoma it was 12 µM; in the assay on SNB-19 CNS it was 68.8 µM.
`Cn1cnc([N+](=O)[O-])c1S(=O)(=O)Oc1ccc(Cl)cc1`: the GI50 was 15.7 µM in the assay on SK-MEL-5 melanoma; 0.546 µM in the assay on COLO 205 colon; 13.3 µM with BT-549 breast; 27.8 µM in the assay with TK-10 renal; 1.85 µM in the assay on HL-60(TB) leukemia; 7.11 µM with SF-539 CNS. Further, the GI50 in the assay on MALME-3M melanoma was 1.99 µM; in the assay with A549 NSCLC it was 58.2 µM; with SK-MEL-2 melanoma, 18.7 µM; in the assay on SNB-19 CNS it was over 100 µM. Moreover, the TGI is 32.3 µM in the assay with SK-MEL-5 melanoma; 2.09 µM in the assay on COLO 205 colon; 28.8 µM in the assay on BT-549 breast; over 100 µM in the assay with TK-10 renal; 3.77 µM with HL-60(TB) leukemia; 21 µM in the assay on SF-539 CNS. Further, the TGI with MALME-3M melanoma was 4.15 µM; in the assay with A549 NSCLC, over 100 µM; in the assay with SK-MEL-2 melanoma, 61.1 µM; in the assay with SNB-19 CNS it was over 100 µM.
Take `Clc1cc(Br)ccc1-c1ccc(CNCC2CCNCC2)o1`: the GI50 with SK-MEL-5 melanoma was 1.76 µM; with COLO 205 colon, 1.89 µM; in the assay on BT-549 breast, 1.73 µM; in the assay on TK-10 renal it was 1.75 µM; in the assay with HL-60(TB) leukemia, 1.89 µM; in the assay with SF-539 CNS, 1.65 µM. In addition, the GI50 was 2.33 µM with MALME-3M melanoma, 1.9 µM with A549 NSCLC, 1.75 µM with SK-MEL-2 melanoma and 2.3 µM in the assay on SNB-19 CNS. Besides, the TGI with SK-MEL-5 melanoma turned out to be 3.2 µM; in the assay with COLO 205 colon it was 3.51 µM; in the assay with BT-549 breast, 3.5 µM; in the assay on TK-10 renal, 3.37 µM; in the assay with HL-60(TB) leukemia, 3.99 µM; in the assay with SF-539 CNS, 3.17 µM. Also, the TGI in the assay with MALME-3M melanoma was found to be 4.11 µM; in the assay with A549 NSCLC it was 3.77 µM; in the assay with SK-MEL-2 melanoma, 3.53 µM; with SNB-19 CNS, 7.2 µM.
Take `Oc1nc(N2CCOCC2)sc1/C=C1\C=Nc2ccccc21`: the GI50 with SK-MEL-5 melanoma, with COLO 205 colon, in the assay on BT-549 breast, in the assay with TK-10 renal, in the assay with HL-60(TB) leukemia and with SF-539 CNS was over 100 µM each time. Moreover, the GI50 in the assay on MALME-3M melanoma, in the assay with A549 NSCLC, in the assay on SK-MEL-2 melanoma and in the assay on SNB-19 CNS was over 100 µM in each case. In addition, the TGI in the assay on SK-MEL-5 melanoma, in the assay on COLO 205 colon, with BT-549 breast, in the assay with TK-10 renal, in the assay on HL-60(TB) leukemia and in the assay with SF-539 CNS was over 100 µM throughout. The TGI in the assay on MALME-3M melanoma, with A549 NSCLC, with SK-MEL-2 melanoma and in the assay with SNB-19 CNS was over 100 µM each time.
For the compound `COc1cccc(/C=C2\CCC(CN(C)C)C2=O)c1` (stereo not given), the TGI in the assay with SK-MEL-5 melanoma was determined as 24.8 µM; in the assay on COLO 205 colon, 24.5 µM; in the assay with BT-549 breast it was 15.2 µM; with TK-10 renal it was 24.3 µM; in the assay with HL-60(TB) leukemia, 2.47 µM; with SF-539 CNS it was 27.9 µM. The TGI came to 14 µM with MALME-3M melanoma, 42.7 µM in the assay with A549 NSCLC, 26.2 µM in the assay with SK-MEL-2 melanoma and 29.5 µM with SNB-19 CNS.
As to `COc1ccc(Nc2ncc(I)c(NCCCNC(=O)C3CCC3)n2)cc1`, the GI50 in the assay on SK-MEL-5 melanoma is 10.1 µM; with COLO 205 colon, 3.07 µM; with BT-549 breast it was 2.52 µM; with TK-10 renal it was 0.897 µM; in the assay with HL-60(TB) leukemia, 3.47 µM; in the assay with SF-539 CNS it was 3.47 µM. Besides, the GI50 in the assay on MALME-3M melanoma was 7.39 µM; in the assay with A549 NSCLC, 4.6 µM; in the assay with SK-MEL-2 melanoma, 16.8 µM; with SNB-19 CNS, 5.26 µM. Further, the TGI came to 28.7 µM in the assay on SK-MEL-5 melanoma; 12.2 µM in the assay with COLO 205 colon; 7.92 µM in the assay on BT-549 breast; 9.78 µM in the assay on TK-10 renal; 14.7 µM with HL-60(TB) leukemia; 18.4 µM in the assay with SF-539 CNS. Besides, the TGI with MALME-3M melanoma is over 100 µM; in the assay on A549 NSCLC it was 24.6 µM; in the assay on SK-MEL-2 melanoma, 57.1 µM; with SNB-19 CNS it was over 100 µM.
For `O=c1[nH]c(-c2ccc(Cl)c(Cl)c2)cn1-c1ccc(Cl)cc1`, the GI50 in the assay with SK-MEL-5 melanoma was 42.2 µM; in the assay on COLO 205 colon, 40.3 µM; in the assay on BT-549 breast it was 37.7 µM; with TK-10 renal, 16.5 µM; in the assay with HL-60(TB) leukemia it was 34.1 µM; in the assay on SF-539 CNS it was 20.1 µM. The GI50 with MALME-3M melanoma is 17 µM; in the assay with A549 NSCLC, 21.3 µM; in the assay on SK-MEL-2 melanoma, 24.4 µM; in the assay with SNB-19 CNS, 30.1 µM. The TGI with SK-MEL-5 melanoma was over 100 µM; in the assay on COLO 205 colon, over 100 µM; in the assay on BT-549 breast, over 100 µM; in the assay on TK-10 renal, 32.4 µM; in the assay on HL-60(TB) leukemia, over 100 µM; in the assay with SF-539 CNS, 54.2 µM. Moreover, the TGI with MALME-3M melanoma came to 39.7 µM; in the assay on A549 NSCLC it was 48 µM; in the assay on SK-MEL-2 melanoma it was 64.6 µM; with SNB-19 CNS it was 81.2 µM.
On to `COc1cc2c(cc1OC)[C@@H]1C(=O)c3ccc4c(c3O[C@@H]1CO2)C[C@H](C(C)C)O4`, for which the GI50 with SK-MEL-5 melanoma is 0.0375 µM; in the assay with COLO 205 colon, 6.19 µM; in the assay on BT-549 breast, 0.279 µM; with TK-10 renal it was 5.37 µM; in the assay with HL-60(TB) leukemia, 1.51 µM; in the assay with SF-539 CNS, 15 µM. Besides, the GI50 is 5.56 µM with MALME-3M melanoma, 0.759 µM in the assay with A549 NSCLC, 18.5 µM with SK-MEL-2 melanoma and 9.74 µM in the assay with SNB-19 CNS. Further, the TGI is 12.9 µM with SK-MEL-5 melanoma; 20.8 µM in the assay with COLO 205 colon; 20.8 µM with BT-549 breast; over 49 µM in the assay with TK-10 renal; over 23.8 µM in the assay with HL-60(TB) leukemia; over 53.4 µM in the assay with SF-539 CNS. Moreover, the TGI in the assay with MALME-3M melanoma is 53.2 µM; in the assay on A549 NSCLC it was over 57.8 µM; in the assay on SK-MEL-2 melanoma, 57 µM; in the assay on SNB-19 CNS, over 78.1 µM.
Take `CC(C)[C@@]12C[C@@H](OC(=O)C3CO3)[C@@](C)(O1)[C@@H]1CC[C@@H](C)[C@H]1[C@@H]2OC(=O)/C=C/c1ccccc1` (stereo not given in full): the GI50 in the assay with SK-MEL-5 melanoma was 16.5 µM; in the assay on COLO 205 colon it was 27.8 µM; in the assay with BT-549 breast it was 11.3 µM; with TK-10 renal it was 29.6 µM; with HL-60(TB) leukemia it was 22.7 µM; in the assay on SF-539 CNS, 16.4 µM. In addition, the GI50 in the assay with MALME-3M melanoma is 13 µM; with A549 NSCLC, 20.4 µM; in the assay on SK-MEL-2 melanoma, 19.1 µM; in the assay with SNB-19 CNS, 16.6 µM. Also, the TGI with SK-MEL-5 melanoma is 30.2 µM; in the assay on COLO 205 colon, over 100 µM; in the assay with BT-549 breast, 27.8 µM; in the assay on TK-10 renal, 65.8 µM; in the assay with HL-60(TB) leukemia, 68.3 µM; with SF-539 CNS it was 31.4 µM. For the same compound, the TGI in the assay on MALME-3M melanoma amounted to 27.4 µM; in the assay with A549 NSCLC it was 49.5 µM; in the assay on SK-MEL-2 melanoma it was 42.8 µM; with SNB-19 CNS, 33.4 µM.
In the case of `COc1cc2c(/C=C3\C(=O)N(C)c4ccccc43)c[nH]c2cc1C`, the GI50 with SK-MEL-5 melanoma is 2.36 µM; in the assay on COLO 205 colon it was 1.58 µM; in the assay on BT-549 breast, 7.53 µM; in the assay with TK-10 renal, 10.5 µM; with HL-60(TB) leukemia it was 2.53 µM; in the assay on SF-539 CNS, 4.2 µM. The GI50 is 1 µM in the assay on MALME-3M melanoma, 2.39 µM in the assay on A549 NSCLC, 10.2 µM with SK-MEL-2 melanoma and 4.15 µM with SNB-19 CNS. Moreover, the TGI in the assay on SK-MEL-5 melanoma is over 40 µM; in the assay with COLO 205 colon, over 100 µM; with BT-549 breast, 71.9 µM; in the assay on TK-10 renal, 70.5 µM; with HL-60(TB) leukemia, 84.8 µM; with SF-539 CNS, over 31.2 µM. The TGI in the assay on MALME-3M melanoma was over 53.9 µM; with A549 NSCLC, over 66.8 µM; in the assay with SK-MEL-2 melanoma it was over 84.1 µM; in the assay on SNB-19 CNS, over 100 µM.
For `ClCc1ccccc1Cn1cnc2nc(Cl)nc(Cl)c21`, the GI50 in the assay on SK-MEL-5 melanoma was 0.369 µM; in the assay with COLO 205 colon, 0.357 µM; with BT-549 breast it was 1.34 µM; in the assay with TK-10 renal, 13.5 µM; with HL-60(TB) leukemia, 1.35 µM; in the assay with SF-539 CNS, 0.639 µM. For the same compound, the GI50 in the assay with MALME-3M melanoma was 1.68 µM; in the assay on A549 NSCLC, 5.29 µM; in the assay on SK-MEL-2 melanoma, 1.89 µM; in the assay on SNB-19 CNS it was 1.14 µM. Besides, the TGI is 0.997 µM in the assay with SK-MEL-5 melanoma; over 100 µM in the assay on COLO 205 colon; 3.08 µM in the assay on BT-549 breast; 29.8 µM in the assay with TK-10 renal; 8.45 µM with HL-60(TB) leukemia; 1.29 µM with SF-539 CNS. Also, the TGI in the assay with MALME-3M melanoma was 7.75 µM; in the assay with A549 NSCLC, 13.2 µM; in the assay on SK-MEL-2 melanoma it was 8.59 µM; in the assay with SNB-19 CNS, 2.51 µM.
